# Reference: US7507730B2, “Substituted pyrazolo[1,5-a]pyrimidines as potassium channel activators” (Bristol-Myers Squibb Company, priority 2005, dated 2009)
# Molecular target: Kv1.5 (Homo sapiens, UniProt P22460)
# Test: Kv1.5 inhibition assay (IKur inhibitor assay per cited references)
# Assay type: cell-based
# Settings: for Kv1.5% inhibition / inhibition at 0.3 µM: at 0.3 μM; for IC50: read-out: Kv1.5 IC50
# Excerpt: Assays to determine the degree of activity of a compound as an IKur inhibitor are well known in the art and are described in references such as J. Gen. Physiol. Apr.; 101 (4):513-43, and Br. J. Pharmacol. 1995 May; 115(2):267-74.
# Chain of Kv1.5 (P22460 whole entry): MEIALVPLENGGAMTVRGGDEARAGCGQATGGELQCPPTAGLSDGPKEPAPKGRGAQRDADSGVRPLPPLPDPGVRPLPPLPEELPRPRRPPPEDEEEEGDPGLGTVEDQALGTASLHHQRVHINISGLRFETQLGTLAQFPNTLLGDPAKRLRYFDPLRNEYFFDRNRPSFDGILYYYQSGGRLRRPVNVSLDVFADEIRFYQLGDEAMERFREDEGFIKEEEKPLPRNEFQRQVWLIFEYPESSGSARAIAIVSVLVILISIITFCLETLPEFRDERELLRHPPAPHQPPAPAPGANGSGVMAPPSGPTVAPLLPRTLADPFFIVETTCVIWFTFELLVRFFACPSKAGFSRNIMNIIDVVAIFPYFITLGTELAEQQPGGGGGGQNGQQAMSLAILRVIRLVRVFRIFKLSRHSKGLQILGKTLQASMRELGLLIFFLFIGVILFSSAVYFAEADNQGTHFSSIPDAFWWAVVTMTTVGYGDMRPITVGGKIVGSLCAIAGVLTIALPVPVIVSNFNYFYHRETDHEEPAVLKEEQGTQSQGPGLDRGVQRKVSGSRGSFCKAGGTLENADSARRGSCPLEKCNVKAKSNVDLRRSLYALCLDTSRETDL
Kv1.5% inhibition [%],inhibition at 0.3 µM [%],SMILES,also measured
72.7,–,"COc1ccc(S(=O)(=O)C2=C(C)Nc3cc(C(F)(F)F)nn3C2c2ccc(C)c(F)c2)cc1 (single isomer, unassigned) [Example 32 Isomer 2, 7-(3-Fluoro-4-methylphenyl)-6-(4-methoxyphenylsulfonyl)-5-methyl-2-(trifluoromethyl)-4,7-dihydropyrazolo[1,5-a]pyrimidine]",–
–,94.4,"COc1cccc(S(=O)(=O)C2=C(C)Nc3cc(C(F)(F)F)nn3C2c2ccc(Cl)cc2)c1 (single isomer, unassigned) [Example 40 Isomer 1, 7-(4-Chlorophenyl)-6-(3-methoxyphenylsulfonyl)-5-methyl-2-(trifluoromethyl)-4,7-dihydropyrazolo[1,5-a]pyrimidine]",–
74.4,–,"COc1cccc(S(=O)(=O)C2=C(C)Nc3cc(C(F)(F)F)nn3C2c2ccc(Cl)cc2)c1 (single isomer, unassigned) [Example 40 Isomer 2, 7-(4-Chlorophenyl)-6-(3-methoxyphenylsulfonyl)-5-methyl-2-(trifluoromethyl)-4,7-dihydropyrazolo[1,5-a]pyrimidine]",–
–,84.4,"COc1cccc(S(=O)(=O)C2=C(C)Nc3cc(C(F)(F)F)nn3C2c2ccc(C)c(F)c2)c1 (single isomer, unassigned) [Example 41 Isomer 1, 7-(3-Fluoro-4-methylphenyl)-6-(3-methoxyphenylsulfonyl)-5-methyl-2-(trifluoromethyl)-4,7-dihydropyrazolo[1,5-a]pyrimidine]",–
85.8,–,"COc1cccc(S(=O)(=O)C2=C(C)Nc3cc(C(F)(F)F)nn3C2c2ccc(C)c(F)c2)c1 (single isomer, unassigned) [Example 41 Isomer 2, 7-(3-Fluoro-4-methylphenyl)-6-(3-methoxyphenylsulfonyl)-5-methyl-2-(trifluoromethyl)-4,7-dihydropyrazolo[1,5-a]pyrimidine]",–
–,94.5,"CC1=C(S(=O)(=O)c2ccc(Cl)cc2)C(c2ccc(C)c(F)c2)n2nc(C(F)(F)F)cc2N1 (single isomer, unassigned) [Example 42 Isomer 1, 6-(4-Chlorophenylsulfonyl)-7-(3-fluoro-4-methylphenyl)-5-methyl-2-(trifluoromethyl)-4,7-dihydropyrazolo[1,5-a]pyrimidine]",–
92.9,–,"CC1=C(S(=O)(=O)c2ccc(Cl)cc2)C(c2ccc(C)c(F)c2)n2nc(C(F)(F)F)cc2N1 (single isomer, unassigned) [Example 42 Isomer 2, 6-(4-Chlorophenylsulfonyl)-7-(3-fluoro-4-methylphenyl)-5-methyl-2-(trifluoromethyl)-4,7-dihydropyrazolo[1,5-a]pyrimidine]",–

# Second part, the compound before the results:
SMILES,Kv1.5% inhibition [%],inhibition at 0.3 µM [%],also measured
"CC1=C(S(=O)(=O)c2ccccc2)C(c2ccc(Cl)c(F)c2)n2nc(C(F)(F)F)cc2N1 (single isomer, unassigned) [Example 33 Isomer 1, 7-(4-Chloro-3-fluorophenyl)-5-methyl-6-(phenylsulfonyl)-2-(trifluoromethyl)-4,7-dihydropyrazolo[1,5-a]pyrimidine]",–,75.5,–
"CC1=C(S(=O)(=O)c2ccccc2)C(c2ccc(Cl)c(F)c2)n2nc(C(F)(F)F)cc2N1 (single isomer, unassigned) [Example 33 Isomer 2, 7-(4-Chloro-3-fluorophenyl)-5-methyl-6-(phenylsulfonyl)-2-(trifluoromethyl)-4,7-dihydropyrazolo[1,5-a]pyrimidine]",76.5,–,–
"CC1=C(S(=O)(=O)c2ccc(Cl)cc2)C(c2ccccc2)n2nc(C(F)(F)F)cc2N1 (single isomer, unassigned) [Example 35 Isomer 1, 6-(4-Chlorophenylsulfonyl)-5-methyl-7-phenyl-2-(trifluoromethyl)-4,7-dihydropyrazolo[1,5-a]pyrimidine]",–,–,IC50: 277 nM
"CC1=C(S(=O)(=O)c2ccc(Cl)cc2)C(c2ccccc2)n2nc(C(F)(F)F)cc2N1 (single isomer, unassigned) [Example 35 Isomer 2, 6-(4-Chlorophenylsulfonyl)-5-methyl-7-phenyl-2-(trifluoromethyl)-4,7-dihydropyrazolo[1,5-a]pyrimidine]",–,–,IC50: 252 nM
"CC1=C(S(=O)(=O)c2ccccc2)C(c2ccc(F)cc2)n2nc(C(F)(F)F)cc2N1 (single isomer, unassigned) [Example 36 Isomer 1, 7-(4-Fluorophenyl)-5-methyl-6-(phenylsulfonyl)-2-(trifluoromethyl)-4,7-dihydropyrazolo[1,5-a]pyrimidine]",–,–,IC50: 208 nM
"CC1=C(S(=O)(=O)c2ccccc2)C(c2ccc(F)cc2)n2nc(C(F)(F)F)cc2N1 (single isomer, unassigned) [Example 36 Isomer 2, 7-(4-Fluorophenyl)-5-methyl-6-(phenylsulfonyl)-2-(trifluoromethyl)-4,7-dihydropyrazolo[1,5-a]pyrimidine]",–,49,–
"CC1=C(S(=O)(=O)NC2CCCCC2)C(c2ccc(Cl)c(Cl)c2)n2nc(C)cc2N1 (single isomer, unassigned) [Example 38 Isomer 1, N-Cyclohexyl-7-(3,4-dichlorophenyl)-2,5-dimethyl-4,7-dihydropyrazolo[1,5-a]pyrimidine-6-sulfonamide]",–,–,IC50: 108 nM
"CC1=C(S(=O)(=O)NC2CCCCC2)C(c2ccc(Cl)c(Cl)c2)n2nc(C)cc2N1 (single isomer, unassigned) [Example 38 Isomer 2, N-Cyclohexyl-7-(3,4-dichlorophenyl)-2,5-dimethyl-4,7-dihydropyrazolo[1,5-a]pyrimidine-6-sulfonamide]",–,27.6,–
"COc1cccc(S(=O)(=O)C2=C(C)Nc3cc(C(F)(F)F)nn3C2c2ccc(Cl)c(Cl)c2)c1 (single isomer, unassigned) [Example 39 Isomer 1, 7-(3,4-Dichlorophenyl)-6-(3-methoxyphenylsulfonyl)-5-methyl-2-(trifluoromethyl)-4,7-dihydropyrazolo[1,5-a]pyrimidine]",–,78.6,–
"COc1cccc(S(=O)(=O)C2=C(C)Nc3cc(C(F)(F)F)nn3C2c2ccc(Cl)c(Cl)c2)c1 (single isomer, unassigned) [Example 39 Isomer 2, 7-(3,4-Dichlorophenyl)-6-(3-methoxyphenylsulfonyl)-5-methyl-2-(trifluoromethyl)-4,7-dihydropyrazolo[1,5-a]pyrimidine]",79.6,–,–
"CC1=C(S(=O)(=O)c2ccc(Cl)cc2)C(c2ccc(F)cc2)n2nc(C(F)(F)F)cc2N1 (single isomer, unassigned) [Example 43 Isomer 1, 6-(4-Chlorophenylsulfonyl)-7-(4-fluorophenyl)-5-methyl-2-(trifluoromethyl)-4,7-dihydropyrazolo[1,5-a]pyrimidine]",–,83.6,–
"CC1=C(S(=O)(=O)c2ccc(Cl)cc2)C(c2ccc(F)cc2)n2nc(C(F)(F)F)cc2N1 (single isomer, unassigned) [Example 43 Isomer 2, 6-(4-Chlorophenylsulfonyl)-7-(4-fluorophenyl)-5-methyl-2-(trifluoromethyl)-4,7-dihydropyrazolo[1,5-a]pyrimidine]",87.3,–,–
"CC1=C(S(=O)(=O)c2ccc(Cl)cc2)C(C2CCCCC2)n2nc(C(F)(F)F)cc2N1 (single isomer, unassigned) [Example 44 Isomer 1, 6-(4-Chlorophenylsulfonyl)-7-cyclohexyl-5-methyl-2-(trifluoromethyl)-4,7-dihydropyrazolo[1,5-a]pyrimidine]",–,–,IC50: 202 nM
